# pIC50: −log10 of the molar value.
# Assays:
# [1] = Cell proliferation assay (ATPlite) in a panel of NF1 related cell lines; assay type: cell-based, human and mouse; details: 72 h; read-out: IC50 (concentration required for inhibition of cell proliferation by 50%)
# Experimental: Several physiologically relevant cells or cell lines were employed to measure compound potency in cell proliferation assays. These cells include: (1) NF1-deficient human malignant peripheral nerve sheath tumor (MPNST) cells, (2) Nf1^−/− mouse embryonic Schwann cells, and (3) Nf1- and p53-deficient mouse cell. […] All the other cells are grown in DMEM with 10% fetal bovine serum (FBS).
# Various concentrations of each compound/agent to be tested were added to the growing media and the cells were then cultured for 3 days. […] Viable cells were measured by detecting luminescence generated from reaction of ATPlite solution and the ATP in the cells.
# [2] = test system: Fresh human dermal neurofibroma; assay: Ex vivo tumor explant assay, histological score; assay type: cell-based; details: compound added day 1, collected day 3, criterion “+” or more
# Experimental: The efficacy of the compound/agent was tested in an ex vivo tumor explant model as follows. Fresh human dermal neurofibroma was cut into eight small pieces and cultured on standard cell culture plates with medium containing DMEM/F12, 10% FBS, heregulin and forskolin. The pieces were divided into treatment and control groups. Compound at different doses was added to the medium on day 1. No compound was added in the negative control group. All tumor pieces were collected on day 3 and processed for histology by formalin fixation and paraffin embedding. Tissue sections were cut and stained with hematoxylin-eosin for histological analysis. The histological analysis of the paired explant samples was conducted blindly. Three histological parameters were used to score the samples from “−” to “+++”: 1) overall tissue integrity; we evaluate tissue integrity by comparing the cellularity of treated samples to the negative control samples. The low cellularity area was defined as >30% less nucleus than the similar area on the control sample. The photograph of each sample at 40× under a bright field microscopy was take using MagnaFire digital camera (Optronics, USA) and stored in computer. The low cellularity areas in the pictures were measured using Photoshop and calculated as Length×Width, and then expressed as a percentage over the total area of the sample. Overall tissue integrity was scored using 0 to 2+ score. In short, good tissue integrity is scored 0 (<5%), 1+ indicates medium tissue integrity (5-25%), 2+ low tissue integrity (>25%). Only 2+ cases were regarded as positive “+” for the final total score; 2) cell death—slides were evaluated by bright field microscopy. At least 100 cells per view were counted. Cell death was scored semi-quantitatively using the 0 to 3+ score. The absence of condensed or fragmented nucleus is scored 0, 1+ indicates the lowest level of detectable cell death (<10%), 2+ moderate cell death ([…]), and 3+ high cell death (>30%). All 2+ and 3+ cases were regarded as positive “+” for the final total score; and 3) effect on vasculatures.—slides were evaluated by bright field microscopy. The effect on vasculature in treated samples was determined by comparing with the vasculatures in control negative samples. At least 20 vasculatures per sample were counted. Effect on vasculatures was scored semi-quantitatively using the […]. In short, absence or the lowest level of damaged vasculature is scored 0 (<5%), 1+ indicates of some damaged vasculature (5-25%), 2+ high (>25%). All 1+ and 2+ cases were regarded as positive “+” for the final total score. Final histological score was the sum of the scores of the above three parameters, expressed as “−” to “+++”. Any compound with a histological score of “+” or more will be potential good candidates for local treatment of neurofibromas.
# [3] = test system: cutaneous neurofibromas; assay: Proof-of-concept intralesional administration study in NF1 subjects; assay type: in vivo, human; details: intralesional injection once weekly for 4 weeks, all controls showed no change
# Excerpt: The study was a proof-of-concept, prospective, safety and efficacy study of the effect of intralesionally administered drugs given once a week to 3 target cutaneous neurofibromas for 4 consecutive weeks. Six subjects were enrolled. […] All subjects were from 18 to 65 years of age, inclusive. All subjects otherwise were in good health, or had stable concomitant medical conditions appropriately managed by a primary care physician. […] After screening and enrollment, all subjects received a defined volume (based on the size of the lesion) of intralesional drug once weekly into 3 target cutaneous neurofibromas that are 0.5 to 1.5 cm in diameter, inclusive, in its largest dimension. Each target cutaneous neurofibroma was different in size, with one 0.5 to 0.8 cm in diameter, a second between 0.81 to 1.2 cm in diameter, and a third 1.21 to 1.5 cm in diameter. Concomitantly, three control cutaneous neurofibromas found on the torso and/or appendages of the same range in sizes received sterile normal saline. All lesions prior to injection were locally anesthetized with lidocaine 1% and epinephrine 1:100,000. […] Assessment included the exact measured dimensions (in two axes) of the […] assessed lesions. […]
Compound,pIC50 [1],"Final histological score (tissue integrity, cell death, effect on vasculatures) [2]",tumors injected showing partial or complete elimination of the dermal neurofibroma [3] [%]
COC(=O)Nc1nc2cc(C(=O)c3ccccc3)ccc2[nH]1 [Mebendazole],≥ 5.00,+,
CC[C@@]1(O)C(=O)OCc2c1cc1n(c2=O)Cc2cc3ccccc3nc2-1 [Camptothecin],≥ 5.00,,
NC(=O)c1cn([C@@H]2O[C@H](CO)C(O)C2O)c2ncnc(N)c12 (stereo partly shown) [Sangivamycin],≥ 5.00,+,
"O=c1cc(N2CCOCC2)oc2c(-c3ccccc3)cccc12 [LY294002, 2-(4-Morpholinyl)-8-phenyl-4H-1-benzopyran-4-one]",≥ 5.00,,
"O=C(O[C@@H]1Cc2c(O)cc(O)cc2O[C@@H]1c1cc(O)c(O)c(O)c1)c1cc(O)c(O)c(O)c1 [EGCG, (−)-Epigallocatechin Gallate]",≥ 5.00,,
"CCCCCCCCCCCCCCCCOP(=O)([O-])OCC[N+](C)(C)C [miltefosine, Miltefosine]",≥ 5.00,,
"CCN(CC)CCNC(=O)c1c(C)[nH]c(/C=C2\C(=O)Nc3ccc(Cl)cc32)c1C [SU11652, 5-[(Z)-(5-Chloro-2-oxo-1,2-dihydro-3H-indol-3-ylidene)methyl]-N-[2-(diethylamino)ethyl]-2,4-dimethyl-1H-pyrrole-3-carboxamide]",≥ 5.00,,
"CC1=C(/C=C/C(C)=C/C=C/C(C)=C/C(=O)O)C(C)(C)CCC1 [retinoic acid, 3,7-dimethyl-9-(2,6,6-trimethyl-1-cyclohexenyl)-nona-2,4,6,8-tetraenoic acid]",≥ 5.00,,
COc1cc([C@@H]2c3cc4c(cc3[C@H](O)[C@H]3COC(=O)[C@H]23)OCO4)cc(OC)c1OC [Podophyllotoxin],≥ 5.00,+,
"C=CCNC1=C2C[C@@H](C)C[C@H](OC)[C@H](O)[C@@H](C)/C=C(\C)[C@H](OC(N)=O)[C@@H](OC)/C=C\C=C(/C)C(=O)NC(=CC1=O)C2=O [17-AAG, 17-(Allylamino)-17-demethoxygeldanamycin]",≥ 5.00,+,
"CO[C@H]1C[C@@H]2CC[C@@H](C)[C@@](O)(O2)C(=O)C(=O)N2CCCC[C@H]2C(=O)O[C@H]([C@H](C)C[C@@H]2CC[C@@H](O)[C@H](OC)C2)CC(=O)[C@H](C)/C=C(\C)[C@@H](O)[C@@H](OC)C(=O)[C@H](C)C[C@H](C)/C=C/C=C/C=C/1C [rapamycin, Rapamycin]",≥ 5.00,,
"COc1cc(/C=C/C(=O)CC(=O)/C=C/c2ccc(O)c(OC)c2)ccc1O [curcumin, Curcumin]",≥ 5.00,,
"C[C@@H]1C[C@H]2O[C@@H]2/C=C\C=C\C(=O)Cc2c(Cl)c(O)cc(O)c2C(=O)O1 [radicicol, Radicicol]",≥ 5.00,+,
CCCC(CCC)C(=O)O [Valproic acid],,+,
C[C@H]1c2cccc(O)c2C(=O)C2=C(O)[C@]3(O)C(=O)C(C(N)=O)=C(O)[C@@H](N(C)C)[C@@H]3[C@@H](O)[C@@H]21.Cl [Doxycycline],≥ 5.00,,89
CC1=C(/C=C/C(C)=C/C=C/C(C)=C/C(=O)Nc2ccc(O)cc2)C(C)(C)CCC1 [Fenretinide],≥ 5.00,+,
O=C([O-])Cc1ccccc1Nc1c(Cl)cccc1Cl.[Na+] [Diclofenac],,+,48
Nc1nc(Cl)nc2c1ncn2[C@H]1C[C@H](O)[C@@H](CO)O1 [Cladribine],≥ 5.00,,
CC(/C=C/C(=O)NO)=C\[C@@H](C)C(=O)c1ccc(N(C)C)cc1 [Tricostatin A],≥ 5.00,+,
"COc1cc2ncnc(N3CCN(C(=S)NCc4ccc5c(c4)OCO5)CC3)c2cc1OC [KN2941, 4-(6.7-dimethoxy-4-quinazolinyl)-N-(3,4-methylenedioxybenzyl)-1-piperazinethiocarboxamide]",≥ 5.00,,
"N#CC(=C(/N)Sc1ccccc1N)/C(C#N)=C(\N)Sc1ccccc1N [U0126, 1,4-Diamino-2,3-dicyano-1,4-bis(2-aminophenylthio)-butadiene]",≥ 5.00,,
Nc1ncnc2c1ccn2[C@@H]1O[C@H](CO)[C@@H](O)[C@H]1O [Tubercidin],≥ 5.00,+,
Bleomycin,,+,
S=P(N1CC1)(N1CC1)N1CC1 [Thiotepa],≥ 5.00,+,
O=c1[nH]cc(F)c(=O)[nH]1 [5-fluorouracil],≥ 5.00,+,
